Active and inactive are the calls of the source.
What was measured:
Assay type in all cases: functional, cell-based
iNKT [1] = test: Release of IL4 and IFN-gamma from human iNKT cells stimulated by C1R cell expressing human CD1d at 5 ug/ml
iNKT [2] = test: Release of IL2 from mouse iNKT hybridoma stimulated by bone marrow-derived mouse DC at 0.2 ug/ml
iNKT [3] = test: Release of IL4 and IFN-gamma from human iNKT cells stimulated by C1R cell expressing human CD1d at 20 ug/ml

Measured: Activity

CCCCCCCCCCCCC/C=C/[C@@H](O)[C@H](CO[C@@H]1O[C@H](CO)[C@@H](O[C@@H]2O[C@H](CO)[C@H](O)[C@H](O[C@H]3O[C@H](CO)[C@H](O)[C@H](O)[C@H]3O)[C@H]2O)[C@H](O)[C@H]1O)NC(=O)CCCCCCCCCCCCCCCCCCCCCCCCC
active: all assays above

From ChEMBL document CHEMBL1146963, “Synthesis and biological evaluation of alpha-galactosylceramide (KRN7000) and isoglobotrihexosylceramide (iGb3)” (Bioorg Med Chem Lett, 2006)
